These are literature values, as cited in US20100029771A1, “TREATMENT OF ADDICTIVE DISORDERS” (priority 2008, published 2010).

For data set [1] the following is noted: alcoholic subjects; each drug given individually.
The conditions of data set [2]: clinical trials.
The conditions of data set [3]: limited to the first months of treatment.

Consider `NCC(CC(=O)O)c1ccc(Cl)cc1` (stereo not shown) [baclofen, 4-amino-3-(4-chlorophenyl)butanoic acid], for which the effect on craving result in data set [1] is on record as “reduce craving”. Besides, the effect on anxiety result in data set [2] (alcoholic and non-alcoholic subjects) is “reduce anxiety”. Besides, the side effect entry in data set [2] was “somnolence being an overwhelming side effect”.
`O=C1CC[C@@]2(O)[C@H]3Cc4ccc(O)c5c4[C@@]2(CCN3CC2CC2)[C@H]1O5` [naltrexone]: in data set [3], the “duration of benefits on alcohol craving and intake” value was ≤ 3 months.
